# Measured values from patent EP0346132A1, “Pharmaceutical products” (priority 1988, dated 1989).
# “Also recorded” adds a separate entry of the source. Where two headings read alike, the source gives them in different places.
# Columns and labels:
# HIV [1] = assay: Anti-HIV assay (protection of infected cells, XTT microculture tetrazolium assay); assay type: cell-based; settings: for inhibit the infection and killing of human T lymphocytes (Th cells) by HIV / activity against HIV: statement in words; for activity against HIV: in vitro
# Text: (§1) Compound 14a was screened for anti-HIV activity at the National Cancer Institute, Frederick Cancer Research Facility, Frederick, Maryland (FCRF). The screening mode operational procedures utilized at FCRF are set forth in detail in U.S. patent application Serial No. 07/146,252, filed January 20, 1988, the disclosure of which is incorporated by reference herein.
# (§2) Figure 2 depicts a plot of the percentage of test cells over uninfected cells (%) for both infected and uninfected cells as a function of the increasing concentration of compound 14a.
# (§3) The data plotted on Figure 2 permit the calculation of an effective concentration (EC₅₀) with respect to infected cells of about 0.15 µg/ml, an inhibitory concentration (IC₅₀) with respect to normal cells of about 100 µg/ml, and a therapeutic index (TI₅₀) of about 667. An earlier assay carried out at the Southern Research Institute yielded a TI₅₀ of about 200 when MT-2 cells were cultured with H9/HTLV-IIIB.
# The following are the current screening mode operational procedures utilized at Southern Research Institute, Birmingham, AL. The procedure consists of 3 operations: 1) preparation of infected cells and distribution of the test plates; 2) preparation of drug dilution plates and distribution to the test plates; and 3) XTT assay procedure.
# (§4) Cells to be treated in 50 ml conical centrifuge tubes for 30 minutes with 1-2 µg/ml of polybrene at 37°C, and pelleted (8 min., 1200 RPM). Virus is added [in RMPI-1640, 10% fetal calf serum (FCS), with interleukin-2 (IL-2) (for ATH8 cells), and antibiotics] to provide an MOI of approximately 0.01. An MOI of 0.01 is obtained by adding 10³ infectious units of virus to 10⁵ cells. Medium alone is added to virus-free control cells. The treated or control cells are incubated for 1 hour at 37°C in 5% CO₂ in air. Infected or uninfected cells are diluted to give 1 x 10⁴ cells/100 µl (2 x 10⁴ cells/100 µl for ATH8 cells). Infected or uninfected cells (100 µl) are distributed to appropriate wells of a 96 well, U-bottom, microtiter plate. Each compound dilution is tested in duplicate with infected cells. Uninfected cells are examined for drug sensitivity in a single well for each dilution of compound. Drug free control cells, infected and uninfected, are run in triplicate in wells B3 through D3 and E3 through G3, respectively. Wells A4 through A11 and H4 through H11 are drug blanks and get medium alone at this point. The plates are then incubated at 37°C in 5% CO₂ until ready for drug addition.
# The first dilution of each drug is made in a test tube according to the dilution specified hereinbelow. The remaining dilutions are made in 96-well plates. All wells of each plate are filled with 225 µl of medium using a Cetus liquid handling system programed according to the plate filling worksheet. Twenty-five microliters (25 µl) of 2 diluted compounds are manually added to row 11 of a filled dilution plate in the same order in which the drugs will appear on the test plate. The two compounds are then serially diluted 10 fold from row 11 through row 4, using the Cetus liquid handling system, preprogramed with the serial dilution file worksheet.
# Using a multi-channel pipettor with […], 100 µl of each drug dilution is transferred to the test plate; 100 µl from wells A4 through H4 of the dilution plate to the same wells of the test plate. Wells B3 through G3 and B2 through G2 receive medium alone.
# Test plates are incubated at 37°C in 5% CO₂ in air for 7 days or until virus control cells are lysed as determined microscopically.
# An XTT-PMS solution is prepared immediately prior to its addition to the wells of the culture dish [1 mg/ml XTT; 2,3-bis(2-methoxy-4-nitro-5-sulfophenyl)-5-(phenylamino)carbonyl-2H-tetrazolium hydroxide solution in media without FCS]. The stock PMS (phenazine methosulfate (15.3 mg PMS/ml FBS)) solution is diluted 1:100 (0.153 mg/ml). […]
# P-388 Leukemia Cells = assay: P-388 mouse leukemia cell culture cytotoxicity assay; assay type: cell-based; settings: P388, inhibitory (cytotoxicity) concentration for P-388 leukemia cells in culture, read-out: ED₅₀
# Text: The ED₅₀ cytotoxicity concentrations determined for analogs 7a, 9a, 10a, 16a, and 17a in the P-388 mouse leukemia cell culture assay are given in Table II.
# [2] = Anti-HIV assay, toxicity to uninfected (normal) cells, MT-2; assay type: cell-based; settings: human, mt-2 cells, ID₅₀
# Text: as §1, §2, §3, §4
# HSV-1 = assay: Activity against Herpes Simplex Virus Type 1; settings: statement in words
# [3] = Anti-HIV assay, toxicity to uninfected (normal) cells, ATH-8; assay type: cell-based; settings: human, ath-8 cells; first ID₅₀ column (c2); Cell Line ATH-8
# Text: as §1, §3
# (§5) Cells to be treated in 50 ml conical centrifuge tubes for 30 minutes with 1-2 µg/ml of polybrene at 37°C, and pelleted (8 min., 1200 RPM). Virus is added [in RMPI-1640, 10% fetal calf serum (FCS), with interleukin-2 (IL-2) (for ATH8 cells), and antibiotics] to provide an MOI of approximately 0.01. An MOI of 0.01 is obtained by adding 10³ infectious units of virus to 10⁵ cells. Medium alone is added to virus-free control cells. The treated or control cells are incubated for 1 hour at 37°C in 5% CO₂ in air. […] The plates are then incubated at 37°C in 5% CO₂ until ready for drug addition.
# MT-2 = assay: Anti-HIV assay, toxicity to uninfected (normal) cells, MT-2; assay type: cell-based; settings: Homo sapiens, MT2; Figure 2; screened at FCRF; normal cells; read-out: inhibitory concentration (IC₅₀) with respect to normal cells
# Text: as §1, §2, §3, §4
# [4] = Anti-HIV assay, toxicity to uninfected (normal) cells, MT-2C; assay type: cell-based; settings: human, mt-2c cells
# Text: as §1, §3, §5
# [5] = Anti-HIV assay, toxicity to uninfected (normal) cells, CEM-C; assay type: cell-based; settings: human, first ID₅₀ column (c2), Cell Line CEM-C
# Text: as §1, §3, §5
# HIV [6] = settings: background and literature; statement in words; cited from earlier work
# HIV [7] = settings: early clinical trials; statement in words; cited from earlier work
# [8] = Human immunodeficiency virus 1, Cell Line MT-2, read-out: ED₅₀
# [9] = Human immunodeficiency virus 1, Cell Line MT-2C, read-out: ED₅₀
smiles,measurement,setting,value
"CC(=O)OC[C@@H]1C=C[C@H](n2cnc3c(=O)[nH]c(N)nc32)C1 (racemic) [1α-acetate ester of 14a, (1α,2α)-4-(2-Amino-6-hydroxy-9H-purin-9-yl)-2-cyclopentenyl Acetoxycarbinol]",inhibition at 6 µg/mL,"HIV [1]; Human immunodeficiency virus 1, against HIV at 6 µg/ml",28%
"Nc1c(Cl)ncnc1N[C@H]1C=C[C@@H](CO)C1 (racemic) [Compound 3a, (±)-(1α,4α)-4-[(5-Amino-6-chloro-4-pyrimidinyl)-amino]-2-cyclopentenylcarbinol]",inhibit the infection and killing of human T lymphocytes (Th cells) by HIV,HIV [1],effective
Nc1c(Cl)ncnc1N[C@H]1CC[C@@H](CO)C1 (racemic) [Compound 3b],inhibit the infection and killing of human T lymphocytes (Th cells) by HIV,HIV [1],effective
"Nc1nc(Cl)cc(N[C@H]2C=C[C@@H](CO)C2)n1 (racemic) [Compound 4a, (±)-(1α,4α)-4-[(2-Amino-6-chloro-4-pyrimidinyl)-amino]-2-cyclopentenylcarbinol]",inhibit the infection and killing of human T lymphocytes (Th cells) by HIV,HIV [1],effective
Nc1nc(Cl)cc(N[C@H]2CC[C@@H](CO)C2)n1 (racemic) [Compound 4b],inhibit the infection and killing of human T lymphocytes (Th cells) by HIV,HIV [1],effective
"Nc1nc(Cl)c(N=Nc2ccc(Cl)cc2)c(N[C@H]2C=C[C@@H](CO)C2)n1 (racemic) [Compound 5a, (±)-(1α,4α)-4-{[2-Amino-6-chloro-5-(4-chlorophenyl)-azo]-4-pyrimidinyl]-amino}-2-cyclopentenylcarbinol]",inhibit the infection and killing of human T lymphocytes (Th cells) by HIV,HIV [1],effective
"Nc1nc(Cl)c(N)c(N[C@H]2C=C[C@@H](CO)C2)n1 (racemic) [Compound 6a, (±)-(1α,4α)-4-[(2,5-Diamino-6-chloro-4-pyrimidinylamino]-2 cyclopentenylcarbinol]",inhibit the infection and killing of human T lymphocytes (Th cells) by HIV,HIV [1],effective
"OC[C@@H]1C=C[C@H](n2cnc3c(Cl)ncnc32)C1 (racemic) [Compound 7a, (±)-(1α,4α)-4-(6-chloro-9H-purin-9-yl)-2-cyclopentenylcarbinol]",activity against HIV,HIV [1],active
same,inhibit the infection and killing of human T lymphocytes (Th cells) by HIV,HIV [1],effective
same,IC50,P-388 Leukemia Cells,12 µg/mL
same,CC50,[2],58.5 µg/mL
"O=c1[nH]cnc2c1ncn2[C@H]1C=C[C@@H](CO)C1 (racemic) [Compound 8a, (±)-(1α,4α)-4-(6-Hydroxy-9H-purin-9-yl)-2-cyclopentenylcarbinol]",inhibit the infection and killing of human T lymphocytes (Th cells) by HIV,HIV [1],effective
"Nc1ncnc2c1ncn2[C@H]1C=C[C@@H](CO)C1 (racemic) [Compound 9a, (±)-(1α,4α)-4-(6-Amino-9H-purin-9-yl)-2-cyclopentenylcarbinol]",EC50,HIV [1]; [8],2.3 µg/mL
same,activity against HIV,HIV [1],active
same,inhibit the infection and killing of human T lymphocytes (Th cells) by HIV,HIV [1],effective
same,IC50,P-388 Leukemia Cells,40 µg/mL
same,CC50,[2],50 µg/mL
"OC[C@@H]1C=C[C@H](n2cnc3c(S)ncnc32)C1 (racemic) [Compound 10a, (±)-(1α,4α)-4-(6-Mercapto-9H-purin-9-yl)-2-cyclopentenylcarbinol]",activity against HIV,HIV [1],active
same,inhibit the infection and killing of human T lymphocytes (Th cells) by HIV,HIV [1],effective
same,IC50,P-388 Leukemia Cells,3 µg/mL
same,CC50,[2],7.33 µg/mL
"Nc1nc(Cl)c2ncn([C@H]3C=C[C@@H](CO)C3)c2n1 (racemic) [Compound 13a, (±)-(1α,4α)-4-(2-Amino-6-chloro-9H-purin-9-yl)-2-cyclopentenyl carbinol]",EC50,HIV [1]; [8],0.41 µg/mL
same,activity against HIV,HIV [1],active
same,inhibit the infection and killing of human T lymphocytes (Th cells) by HIV,HIV [1],effective
same,CC50,[2],6.97 µg/mL
"Nc1nc2c(ncn2[C@H]2C=C[C@@H](CO)C2)c(=O)[nH]1 (racemic) [Compound 14a, (±)-(1α,4α)-4-(2-Amino-6-hydroxy-9H-purin-9-yl)-2-cyclopentenyl carbinol]",active against HSV-1,HSV-1,active
same,CC50,[3],55.3 µg/mL
same,therapeutic index (TI₅₀),"HIV [1]; Figure 2, screened at FCRF",about 667
same,EC50,"HIV [1]; Human immunodeficiency virus 1, ATH-8, Cell Line ATH-8, read-out: ED₅₀",0.2 µg/mL
same,EC50,"HIV [1]; Human immunodeficiency virus 1, Figure 2, screened at FCRF, read-out: effective concentration (EC₅₀) with respect to infected cells",~0.15 µg/mL
same,TI₅₀,"HIV [1]; earlier assay at Southern Research Institute, MT-2 cells cultured with H9/HTLV-IIIB",about 200
same,activity against HIV,HIV [1],strongly inhibits HIV infectivity in vitro
same,inhibit the infection and killing of human T lymphocytes (Th cells) by HIV,HIV [1],effective
same,IC50,MT-2,~100 µg/mL
"Nc1nc(N)c2ncn([C@H]3C=C[C@@H](CO)C3)c2n1 (racemic) [Compound 15a, (±)-(1α,4α)-4-(2,6-Diamino-9H-purin-9-yl)-2-cyclopentenylcarbinol]",CC50,[4],> 125 µg/mL
same,EC50,HIV [1]; [9],1.9 µg/mL
same,activity against HIV,HIV [1],active
same,inhibit the infection and killing of human T lymphocytes (Th cells) by HIV,HIV [1],effective
Nc1nc(Cl)c2nnn([C@H]3C=C[C@@H](CO)C3)c2n1 (racemic) [Compound 16a],IC50,P-388 Leukemia Cells,1 µg/mL
Nc1nc2c(nnn2[C@H]2C=C[C@@H](CO)C2)c(=O)[nH]1 (racemic) [Compound 17a],IC50,P-388 Leukemia Cells,4.5 µg/mL
"Nc1nc(O)c2ncn([C@H]3C=C[C@@H](CO)C3)c2n1 [(-)14a, (1S,4R)-4-(2-Amino-6-hydroxy-9H-Purin-9-yl)-2-cyclopentenyl Carbinol]",CC50,"[4]; first ID₅₀ column (c2), Cell Line MT-2C, read-out: ID₅₀",135 µg/mL
same,CC50,[5],189 µg/mL
same,EC50,HIV [1]; [9],0.325 µg/mL
same,activity against HIV,HIV [1],highly active
"[N-]=[N+]=N[C@H]1C[C@H](n2ccc(=O)[nH]c2=O)O[C@@H]1CO [CS-87, 3′-azido-2′,3′-dideoxyuridine]",activity against HIV in vitro,HIV [6],significant activity against HIV in vitro; also recorded: significantly inhibit HIV replication in vitro
"NC(=O)c1ncn([C@@H]2O[C@H](CO)[C@@H](O)[C@H]2O)n1 [Ribavirin, 1-β-D-Ribofuranosyl-1H-1,2,4-triazole-3-carboxamide]",effect in AIDS patients,HIV [7],inhibited viral replication
"Cc1cn([C@H]2C=C[C@@H](CO)O2)c(=O)[nH]c1=O [d4T, 2′,3′-dideoxy-2′,3′-didehydrothymidine]",activity against HIV in vitro,HIV [6],potent inhibitor of HIV replication in vitro
"OC[C@@H]1CC[C@H](n2cnc3c(O)ncnc32)O1 [ddI, 2′,3′-Dideoxyinosine]",activity against HIV in vitro,HIV [6],inhibit HIV-induced cytopathic effects in vitro; also recorded: significant antiviral activity against HIV in vitro
